From patent US10583137B2, “Triazole DAGLα inhibitors” (THE SCRIPPS RESEARCH INSTITUTE, priority 2015, dated 2020) come the findings set out here.

For one assay, the target named is DAGLβ (hDAGLβ-FLAG) (Homo sapiens (Human), UniProt Q8NCG7). As to the kind of experiment: competitive ABPP, membrane proteome of transfected HEK293T cells. Particulars: for IC50: read-out: DAGLβ IC50. The assay is classed as biochemical. In a few lines: (§1)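 HEK293T membrane proteome (1 mg/ml) expressing FLAG-tagged human DAGLα or DAGLβ, treated 30 min at room temperature with compound, then 30 min with HT-01 or FP-Rh probe (1 μM). Bands separated by SDS-PAGE were normalized to DMSO for IC50 by variable-slope fit.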
DAGLβ (hDAGLβ-FLAG), sequence (Q8NCG7 whole entry): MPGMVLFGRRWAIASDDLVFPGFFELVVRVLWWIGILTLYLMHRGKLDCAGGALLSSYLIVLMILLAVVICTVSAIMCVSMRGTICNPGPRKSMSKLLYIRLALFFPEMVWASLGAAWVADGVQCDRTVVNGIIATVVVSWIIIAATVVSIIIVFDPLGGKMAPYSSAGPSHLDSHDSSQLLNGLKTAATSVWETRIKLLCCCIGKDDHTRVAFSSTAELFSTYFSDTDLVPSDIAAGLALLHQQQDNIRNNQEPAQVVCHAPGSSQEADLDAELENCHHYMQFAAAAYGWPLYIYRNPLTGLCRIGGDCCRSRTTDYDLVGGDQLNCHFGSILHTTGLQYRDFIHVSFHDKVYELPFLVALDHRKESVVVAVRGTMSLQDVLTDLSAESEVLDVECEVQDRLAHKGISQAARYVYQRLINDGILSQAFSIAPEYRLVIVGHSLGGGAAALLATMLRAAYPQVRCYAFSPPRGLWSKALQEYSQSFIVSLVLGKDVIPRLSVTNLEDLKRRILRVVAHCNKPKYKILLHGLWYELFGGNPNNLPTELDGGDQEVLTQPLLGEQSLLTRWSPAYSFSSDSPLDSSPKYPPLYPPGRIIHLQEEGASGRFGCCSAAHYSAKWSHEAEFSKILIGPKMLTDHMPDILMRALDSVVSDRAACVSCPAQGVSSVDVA

For another assay, the target named is DAGLα (hDAGLα-FLAG) (Homo sapiens (Human), UniProt Q9Y4D2). The assay is described as above. The assay is classed as biochemical. As to conditions: for IC50: read-out: DAGLα IC50. In a few lines:
as §1

The target in the next assay is recombinant human DAGLα (Homo sapiens (Human), UniProt Q9Y4D2). The assay is described as follows: SAG substrate assay (in vitro inhibition of 2-AG biosynthesis), membrane lysates from HEK293T cells. The assay is classed as biochemical. As to conditions: any dose tested. The method, then: DAGL modulators were tested for in vitro inhibition of 2-AG biosynthesis using a 1-stearoyl-2-arachidonoyl-sn-glycerol (SAG) substrate assay in DAGL-transfected HEK293 cells.
recombinant human DAGLα, sequence (Q9Y4D2 whole entry): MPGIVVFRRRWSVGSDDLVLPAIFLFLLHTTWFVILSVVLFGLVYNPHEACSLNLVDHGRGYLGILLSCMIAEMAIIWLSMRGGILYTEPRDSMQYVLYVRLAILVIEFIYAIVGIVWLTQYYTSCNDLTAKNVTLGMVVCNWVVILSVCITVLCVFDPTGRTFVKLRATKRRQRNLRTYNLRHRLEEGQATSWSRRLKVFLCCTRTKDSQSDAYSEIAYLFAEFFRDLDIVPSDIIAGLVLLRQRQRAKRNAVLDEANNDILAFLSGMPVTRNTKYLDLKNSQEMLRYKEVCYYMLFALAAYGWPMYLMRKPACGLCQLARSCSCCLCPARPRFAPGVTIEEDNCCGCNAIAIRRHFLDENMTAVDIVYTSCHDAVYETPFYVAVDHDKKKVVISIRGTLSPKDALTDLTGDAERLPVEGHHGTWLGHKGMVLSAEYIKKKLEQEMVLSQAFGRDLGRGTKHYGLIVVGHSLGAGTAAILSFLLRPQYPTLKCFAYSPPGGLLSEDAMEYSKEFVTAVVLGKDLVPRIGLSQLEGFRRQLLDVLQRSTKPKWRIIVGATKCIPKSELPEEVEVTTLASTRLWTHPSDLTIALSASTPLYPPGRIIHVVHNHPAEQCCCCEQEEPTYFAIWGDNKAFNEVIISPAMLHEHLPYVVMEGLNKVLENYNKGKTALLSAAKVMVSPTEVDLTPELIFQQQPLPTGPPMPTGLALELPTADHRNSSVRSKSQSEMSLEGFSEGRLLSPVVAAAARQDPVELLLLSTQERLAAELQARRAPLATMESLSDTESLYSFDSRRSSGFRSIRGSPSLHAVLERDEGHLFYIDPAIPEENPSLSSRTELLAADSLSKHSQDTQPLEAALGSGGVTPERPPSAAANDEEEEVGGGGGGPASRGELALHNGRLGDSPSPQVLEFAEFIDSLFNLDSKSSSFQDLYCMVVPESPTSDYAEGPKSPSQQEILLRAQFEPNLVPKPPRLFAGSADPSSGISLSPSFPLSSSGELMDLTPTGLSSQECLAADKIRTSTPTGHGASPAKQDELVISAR
The SAG substrate assay, as described in Journal of lipid research 56(4):927-935, was performed using the following assay conditions: 0.2 U/mL glycerol kinase (GK), glycerol-3-phosphate oxidase (GPO) and horseradish peroxidase (HRP), 0.125 mM ATP, 10 μM Amplifu™Red, 5% DMSO in a total volume of 200 μL. The assay additionally contained SAG, a DAGL modulator, and membrane lysates from HEK293T cells expressing recombinant human DAGLα or DAGLβ.
Membranes were prepared from HEK293T cells transiently transfected with DAGLα or DAGLβ plasmids encoding for full length DAGLα or DAGLβ, respectively (Angewandte Chemie 52(46):12081-12085; Journal of Medicinal Chemistry 57(15):6610-6622). Briefly, one day prior to transfection, 10^7 cells were seeded in a 15 cm petri dish. The seeded cells were transfected by the addition of a 3:1 mixture of polyethyleneimine (60 μg) and plasmid DNA (20 μg) in 2 mL serum free medium. The medium was refreshed after 24 hr, and after 72 hr the cells were harvested by suspending them in 20 mL medium. The suspension was centrifuged for 10 min at 1000 rpm, and the supernatant was removed. The cell pellet was stored at −80° C. until use. Cell pellets were thawed on ice and suspended in lysis buffer A (20 mM HEPES, 2 mM DTT, 0.25 M sucrose, 1 mM MgCl2, lx protease inhibitor cocktail (Roche cOmplete EDTA free), 25 U/μL Benzonase). The suspension was homogenized by polytrone (3×7 sec) and incubated for 30 min on ice. The suspension was subjected to ultracentrifugation (100,000×g, 30 min, 4° C., Beckman Coulter, Type Ti70 rotor) to yield the cytosolic fraction in the supernatant and the membrane fraction as a pellet. The pellet was resuspended in lysis buffer B (20 mM HEPES, 2 mM DTT, lx protease inhibitor cocktail (Roche cOmplete EDTA free)) and the protein concentration determined with Quick Start Bradford assay (Biorad). The protein fractions were diluted to a total protein concentration of 1 mg/mL and stored in small aliquots at −80° C. until use.

Assay [1] deals with brain 2-AG and other DAGL-regulated lipids. As to the kind of experiment: brain lipid profiles of treated mice by LC-MS. Type of assay: in vivo, mouse. As to conditions: 50 mg/kg i.p., 4 hr post-dosing. On the procedure: Brain lipid profiles of mice treated with compounds 14, 17 and control compound 22.
Mice were treated with 50 mg/kg compound (i.p.), followed by lipid profiling using LC-MS at a 4 hr post-dosing. […] This depletion of brain 2-AG in compound 14 and 17-treated mice was dose-dependent (data not shown) and was observed within 2 h after injection. […] The changes in each lipid species were dose-dependent and were absent in compound 22 treated mice (FIGS. 6C, E, G, I, and K).

The subject of assay [2] is LPS-induced neuroinflammatory responses (brain lipids, cytokines, body temperature). The assay is described as follows: LPS-induced neuroinflammatory responses in mouse brain. Type of assay: in vivo. As to conditions: mice. The method, then:
The effects of pharmacological and genetic inactivation of DAGL activity on neuroinflammatory responses (brain prostaglandin and cytokine production) induced by high-dose lipopolysaccharide treatment was examined.
Mice were treated with compounds 14, 17, control compound 22 or vehicle (50 mg/kg, i.p) for 60-90 min, followed by LPS (20 mg/kg, i.p., 6 hr) or vehicle. The mice were subsequently sacrificed and their brain lipid and cytokine profiles analyzed. […] The LPS-induced elevations in both 2-AG and PGE2 were suppressed in compound 14 and compound 17 treated mice and DAGLα/mice, but not compound 22 treated mice. […] LPS-induced anapyrexia was blunted in compound 14 and 17 treated mice (FIG. 8E) and DAGLα−/− mice (FIG. 8F), but not compound 22 treated mice (FIG. 8E).

In assay [3] the test system is DSE at parallel fiber to Purkinje cell synapses. The assay is described as follows: depolarization-induced suppression of excitation (DSE) in acute cerebellar slices. Particulars: 10 μM. The text has this: Various forms of synaptic plasticity are regulated by 2-AG signaling, included depolarization-induced suppression of excitation (DSE) and inhibition (DSI). DSE was examined at parallel fiber (PF) to Purkinje cell (PC) synapses in acute cerebellar slices. A brief depolarization of PCs induced robust transient DSE at PF-PC synapses in vehicle treated cerebellar slices (FIG. 7A).

The subject of assay [4] is DSI at CA1 pyramidal neuron synapses. As to the kind of experiment: depolarization-induced suppression of inhibition (DSI) in hippocampal slices. Particulars: 10 μM, bath application 30 min. On the procedure:
DSI was evaluated at CA1 pyramidal neuron synapses in hippocampal slices. DSI was induced in vehicle-treated hippocampal slices by applying a brief depolarization while evoking […] through stimulation of synaptic inhibitory inputs (FIG. 7C). Bath application of compound 14 (10 μM) and compound 17 (1 μM), but not compound 22 (10 μM), for 30 min before starting electrophysiological recordings blocked hippocampal DSI (FIGS. 7C and D).

[5] abbreviates: 50 mg/kg i.p. 60-90 min before LPS 20 mg/kg i.p., 6 hr.

Structures are written as SMILES.

DAGLα (hDAGLα-FLAG), sequence (Q9Y4D2 whole entry): as above

On to `CC(C)(C)OC(=O)N1CCN(C(=O)n2cc(-c3ccc(OC(F)(F)F)cc3)nn2)C(c2ccccc2)C1` (stereo not shown) [Compound 22, tert-butyl 3-phenyl-4-(4-(4-(trifluoromethoxy)phenyl)-1H-1,2,3-triazole-1-carbonyl)piperazine-1-carboxylate], for which the inhibition at 0.8 µM on DAGLβ (hDAGLβ-FLAG) (0.8 μM (stated under the cell), read-out: DAGLβ % inh. 0.8 μM) is 0 to 25%. Besides, the inhibition at 0.8 µM on DAGLα (hDAGLα-FLAG) (0.8 μM (stated under the cell), read-out: DAGLα % inh. 0.8 μM) lay in the range of 0 to 25%. Further, the “inhibition of DAGLα” value on recombinant human DAGLα was “did not substantially inhibit”. For the same compound, in assay [1], the “brain 2-AG levels” value is given as “not”, the “brain AA” value is “absent”, the “brain AEA” value is on record as “absent” and the “brain C18:1/C20:4 DAG” value was “absent”. In addition, in assay [1], the “brain PGD2” value was “absent”, the “brain PGE2” value is listed as “absent” and the “brain SAG” value is “absent”. In assay [2] (setting [5]), the “LPS-induced elevation in brain 2-AG” value is reported as “not” and the “LPS-induced elevation in brain PGE2” value was “not”. In assay [2] (50 mg/kg i.p. before LPS), the LPS-induced anapyrexia entry is listed as “not”. Moreover, in assay [2] (50 mg/kg i.p., no LPS), the “brain AA under basal control conditions” value is listed as “not” and the “brain PGE2 under basal control conditions” value was “not”. Moreover, in assay [3], the “effect on cerebellar DSE” value is listed as “did not alter”. Also, the “effect on hippocampal DSI” value in assay [4] was “not”.

As to `CC(C)(C)CN(CCc1cccnc1)C(=O)n1cc(-c2ccc(OC(F)(F)F)cc2)nn1` [Compound 134, N-neopentyl-N-(2-(pyridin-3-yl)ethyl)-4-(4-(trifluoromethoxy)phenyl)-1H-1,2,3-triazole-1-carboxamide], the IC50 on DAGLβ (hDAGLβ-FLAG) and at DAGLα (hDAGLα-FLAG) was at most 400 nM each time.

With `CC(C)(C)CN(CCc1cccnc1)C(=O)n1ncc(-c2ccc(OC(F)(F)F)cc2)n1` [Compound 135, N-neopentyl-N-(2-(pyridin-3-yl)ethyl)-4-(4-(trifluoromethoxy)phenyl)-2H-1,2,3-triazole-1-carboxamide], the IC50 fell in the range of 2000 to 10000 nM at DAGLβ (hDAGLβ-FLAG) and 400 to 2000 nM at DAGLα (hDAGLα-FLAG).

As to `CCC(CC)CN(CCc1cccnc1)C(=O)n1cc(-c2ccc(OC(F)(F)F)cc2)nn1` [Compound 136, N-(2-ethylbutyl)-N-(2-(pyridin-3-yl)ethyl)-4-(4-(trifluoromethoxy)phenyl)-1H-1,2,3-triazole-1-carboxamide], the 50% inhibitory concentration (IC50) on DAGLβ (hDAGLβ-FLAG) and at DAGLα (hDAGLα-FLAG) was at most 400 nM throughout.

Regarding `CCC(CC)CN(CCc1cccnc1)C(=O)n1ncc(-c2ccc(OC(F)(F)F)cc2)n1` [Compound 137], the IC50 on DAGLβ (hDAGLβ-FLAG) and at DAGLα (hDAGLα-FLAG) was 400 to 2000 nM each time.
